Test results: patent publication US12077503B2, “Substituted cyclic amides and their use as herbicides” (FMC CORPORATION, priority 2015, dated 2024)

Experiments:
Format in all cases: in vivo
Kochia (Kochia scoparia) [1] = assay: Test A preemergence
In short: (§1)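 Seeds sprayed preemergence with a directed soil spray, or plants at 2 to 10 cm height and one- to two-leaf stage sprayed postemergence, with test chemicals in a non-phytotoxic solvent mixture containing surfactant, in loam soil–sand blend. Injury rated visually against untreated controls after about 10 d in greenhouse, 0 (no effect) to 100 (complete control).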

[2] = test system: barnyardgrass (Echinochloa crus-galli); assay: Test A preemergence
In short: as §1

[3] = test system: giant foxtail (Setaria faberii); assay: Test A preemergence
In short: as §1

[4] = test system: pigweed (Amaranthus retroflexus); assay: Test A preemergence; settings: preemergence
[5] = test system: ragweed (common ragweed, Ambrosia elatior); assay: Test A preemergence; settings: preemergence
In short: as §1

[6] = test system: ryegrass, Italian (Italian ryegrass, Lolium multiflorum); assay: Test A preemergence; settings: preemergence
In short: as §1

[7] = test system: Galium (catchweed bedstraw, Galium aparine); assay: Test A postemergence; settings: postemergence; for Plant response rating, Galium: 0 to 100 scale (0 no effect, 100 complete control)
In short: as §1

Kochia (Kochia scoparia) [8] = assay: Test A postemergence; settings: postemergence; for Plant response rating, Kochia: 0 to 100 scale (0 no effect, 100 complete control)
In short: as §1

[9] = test system: barnyardgrass (Echinochloa crus-galli); assay: Test A postemergence; settings: postemergence; for Plant response rating, Barnyardgrass: 0 to 100 scale (0 no effect, 100 complete control)
In short: as §1

[10] = test system: blackgrass (Alopecurus myosuroides); assay: Test A postemergence; settings: postemergence; for Plant response rating, Blackgrass: 0 to 100 scale (0 no effect, 100 complete control)
In short: as §1

corn (Zea mays) = assay: Test A postemergence; settings: postemergence; for Plant response rating, Corn: 0 to 100 scale (0 no effect, 100 complete control)
In short: as §1

[11] = test system: giant foxtail (Setaria faberii); assay: Test A postemergence; settings: postemergence; for Plant response rating, Foxtail, Giant: 0 to 100 scale (0 no effect, 100 complete control)
In short: as §1

[12] = test system: pigweed (Amaranthus retroflexus); assay: Test A postemergence; settings: postemergence; for Plant response rating, Pigweed: 0 to 100 scale (0 no effect, 100 complete control)
In short: as §1

[13] = test system: ragweed (common ragweed, Ambrosia elatior); assay: Test A postemergence; settings: postemergence; for Plant response rating, Ragweed: 0 to 100 scale (0 no effect, 100 complete control)
In short: as §1

[14] = test system: ryegrass, Italian (Italian ryegrass, Lolium multiflorum); assay: Test A postemergence; settings: postemergence; for Plant response rating, Ryegrass, Italian: 0 to 100 scale (0 no effect, 100 complete control)
In short: as §1

[15] = test system: wheat (Triticum aestivum); assay: Test A postemergence; settings: postemergence; for Plant response rating, Wheat: 0 to 100 scale (0 no effect, 100 complete control)
In short: as §1

[16] = test system: barnyardgrass (Echinochloa crus-galli); assay: Test B flooded paddy test; settings: 250 g ai/ha, Flood, 0 to 100 scale where 0 is no effect and 100 is complete control
In short: (§2)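 Plants at 2-leaf stage flooded to 3 cm above soil, with compounds applied directly to paddy water and that depth maintained. Plants kept in greenhouse 13–15 d. Visual rating versus controls on a 0 (no effect) to 100 (complete control) scale.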

[17] = test system: ducksalad (Heteranthera limosa); assay: Test B flooded paddy test; settings: 250 g ai/ha, Flood, 0 to 100 scale where 0 is no effect and 100 is complete control
In short: as §2

rice (Oryra sativa) = assay: Test B flooded paddy test; settings: 250 g ai/ha, Flood, 0 to 100 scale where 0 is no effect and 100 is complete control
In short: as §2

[18] = test system: sedge, umbrella (small-flower umbrella sedge, Cyperus difformis); assay: Test B flooded paddy test; settings: 250 g ai/ha, Flood
In short: as §2

[19] = 125 g ai/ha, preemergence, visual injury rating, 0 to 100 scale where 0 is no effect and 100 is complete control, approximately 10 d
[20] = 500 g ai/ha, preemergence, 0 to 100 scale where 0 is no effect and 100 is complete control
[21] = 125 g ai/ha, visual injury rating, 0 to 100 scale where 0 is no effect and 100 is complete control, approximately 10 d
[22] = 500 g ai/ha, 0 to 100 scale where 0 is no effect and 100 is complete control
[23] = 125 g ai/ha, visual injury vs untreated controls after approx. 10 d, 0 = no effect, 100 = complete control
[24] = 500 g ai/ha, 0 to 100 scale, 0 is no effect, 100 is complete control
[25] = 125 g ai/ha, Preemergence, visual injury after approximately 10 d, 0 to 100 scale where 0 is no effect and 100 is complete control
[26] = 500 g ai/ha, preemergence, 0 to 100 scale, 0 = no effect, 100 = complete control
[27] = 125 g ai/ha, visual rating after approx. 10 d, 0 to 100 scale where 0 is no effect and 100 is complete control
[28] = 500 g ai/ha, 0 to 100 scale, 0 = no effect, 100 = complete control
[29] = 125 g ai/ha, visual injury after approximately 10 d
[30] = 500 g ai/ha, visual injury, approx. 10 d
[31] = 125 g ai/ha, visual rating after approx. 10 d

O=C1NCC(c2cccc(C(F)(F)F)c2)C1C(=O)Nc1ccccc1O (centres unmarked) [Compound 1241]
Kochia plant response rating (Kochia (Kochia scoparia) [1]; [19]): 0 | Kochia plant response rating (Kochia (Kochia scoparia) [1]; [20]): 0 | Barnyardgrass plant response rating [2, 19]: 0 | Barnyardgrass plant response rating [2, 20]: 0 | Foxtail, Giant plant response rating [3, 19]: 0 | Foxtail, Giant plant response rating [3, 20]: 0 | Pigweed plant response rating [4, 21]: 0 | Pigweed plant response rating [4, 22]: 0 | Ragweed plant response rating [5, 21]: 0 | Ragweed plant response rating [5, 22]: 0 | Ryegrass, Italian plant response rating [6, 21]: 0 | Ryegrass, Italian plant response rating [6, 22]: 0 | Galium plant response rating (0 to 100 scale) [7, 23]: 0 | Galium plant response rating [7, 24]: 0 | Kochia plant response rating (0 to 100 scale) (Kochia (Kochia scoparia) [8]; [23]): 0 | Kochia plant response rating (Kochia (Kochia scoparia) [8]; [24]): 0 | Barnyardgrass plant response rating (0 to 100 scale) [9, 23]: 0 | Barnyardgrass plant response rating [9, 24]: 30 | Blackgrass plant response rating (0 to 100 scale) [10, 23]: 0 | Blackgrass plant response rating [10, 24]: 0 | Corn plant response rating (0 to 100 scale) (corn (Zea mays); [23]): 0 | Corn plant response rating (corn (Zea mays); [24]): 20 | Foxtail, Giant plant response rating (0 to 100 scale) [11, 23]: 0 | Foxtail, Giant plant response rating [11, 24]: 20 | Pigweed plant response rating (0 to 100 scale) [12, 23]: 0 | Pigweed plant response rating [12, 24]: 0 | Ragweed plant response rating (0 to 100 scale) [13, 23]: 0 | Ragweed plant response rating [13, 24]: 0 | Ryegrass, Italian plant response rating (0 to 100 scale) [14, 23]: 0 | Ryegrass, Italian plant response rating [14, 24]: 0 | Wheat plant response rating (0 to 100 scale) [15, 23]: 0 | Barnyardgrass plant response rating [16]: 0 | Ducksalad plant response rating [17]: 0 | Rice plant response rating (rice (Oryra sativa)): 0 | Sedge, Umbrella plant response rating ([18]; 0 to 100 scale where 0 is no effect and 100 is complete control): 0

CN1CC(c2ccc(C(C)(F)F)cc2)C(C(=O)Nc2ccccc2S(C)(=O)=O)C1=O (centres unmarked) [Compound 692]
Plant response rating, Kochia (Kochia (Kochia scoparia) [1]; [25]): 70 | Plant response rating, Kochia (Kochia (Kochia scoparia) [1]; [26]): 80 | Plant response rating, Barnyardgrass [2, 25]: 70 | Plant response rating, Barnyardgrass [2, 26]: 90 | Plant response rating, Foxtail, Giant [3, 25]: 80 | Plant response rating, Foxtail, Giant [3, 26]: 90 | Plant response rating, Pigweed [4, 27]: 80 | Plant response rating, Pigweed [4, 28]: 90 | Plant response rating, Ragweed [5, 27]: 50 | Plant response rating, Ragweed [5, 28]: 70 | Plant response rating, Ryegrass, Italian [6, 27]: 20 | Plant response rating, Ryegrass, Italian [6, 28]: 60 | Plant response rating, Galium [7, 29]: 0 | Plant response rating, Galium [7, 30]: 60 | Plant response rating, Kochia (Kochia (Kochia scoparia) [8]; [29]): 40 | Plant response rating, Kochia (Kochia (Kochia scoparia) [8]; [30]): 60 | Plant response rating, Barnyardgrass [9, 31]: 70 | Plant response rating, Barnyardgrass [9, 30]: 80 | Plant response rating, Blackgrass [10, 31]: 50 | Plant response rating, Blackgrass [10, 30]: 60 | Plant response rating, Corn (corn (Zea mays); [29]): 0 | Plant response rating, Corn (corn (Zea mays); [30]): 50 | Plant response rating, Foxtail, Giant [11, 29]: 70 | Plant response rating, Foxtail, Giant [11, 30]: 80 | Plant response rating, Pigweed [12, 29]: 40 | Plant response rating, Pigweed [12, 30]: 50 | Plant response rating, Ragweed [13, 29]: 0 | Plant response rating, Ragweed [13, 30]: 30 | Plant response rating, Ryegrass, Italian [14, 29]: 50 | Plant response rating, Ryegrass, Italian [14, 30]: 60 | Plant response rating, Wheat [15, 29]: 0 | Plant response rating, Wheat [15, 30]: 50 | Plant response rating, Barnyardgrass ([16]; 13 to 15 d): 0 | Plant response rating, Ducksalad ([17]; 13 to 15 d): 20 | Plant response rating, Rice (rice (Oryra sativa); 13 to 15 d): 0 | Sedge, Umbrella plant response rating ([18]; scale of 0 to 100 where 0 is no effect and 100 is complete control): 0
